Measured values reported in patent US10774049B2, “PU.1 inhibitors” (Albert Einstein College of Medicine, priority 2016, dated 2020).
Structures can show the parent of a compound that is named as a salt.

Experiments:
PU.1 URE−/− AML cells [1] = experiment: Transplantation of in vitro treated PU.1 URE−/− AML cells into sublethally irradiated mice; assay type: in vivo, mouse
Procedure: FIG. 6A-6H. Treatment with PU1 inhibitors increases survival and decreases tumor burden in vivo. (A) Experimental scheme. URE−/− cells were treated in vitro with DB2313 or Vehicle and counted after 2 days of culture. 200·10^3 viable cells per mouse were injected retroorbitally into sublethally irradiated mice. Mice were sacrificed at 6 weeks or used for survival analyses. (B) Kaplan-Meier survival analysis of transplanted mice (x animals for vehicle group, xx for DB2313 group, from 2 independent experiments, p=). (C,D) Spleen and liver weight 6 weeks after transplant (8 animals for vehicle group, 7 for DB2313 group). Data represent means±SD, each mouse is represented by an individual dot. (E) Chimerism of URE−/− cells in the bone marrow 6 weeks after transplant (14 animals per group from 2 independent experiments).
To assess the effect of PU.1 inhibitors on AML in vivo, we treated PU.1 URE^−/− AML cells for 2 days in vitro and injected 2×10^5 viable cells in sublethally irradiated recipient mice (FIG. 6A).

PU.1 URE−/− AML cells [2] = experiment: Gene expression (transcriptome) analysis of PU.1 URE−/− AML cells; assay type: cell-based, murine; settings: by at least 1.2-fold
Procedure: FIG. 3A-3G. Novel inhibitors show on-target PU.1 inhibitory activity. (A) Quantitative RT-PCR analysis of Csf1r, Junb, Sfpi1, E2f1 expression after 72 h (n=6) and, for Csf1r, after 1 h (n=3), 4 h (n=7), 8 h (n=3) and 24 h (n=3) of treatment with the small molecules in URE−/− cells, expression is normalized to GAPDH expression. Data represent means±SD of technical triplicate from one representative experiment; fold change compared to Vehicle is shown. (B) Chromatin immunoprecipitation assay showing PU.1 occupancy on E2f1, Junb, Csf1r promoters after treatment in Umsh cell line (n=5). 10·10^6 cells were collected for each condition after 8 h treatment with a double dose of the small molecules (50 uM for DB1976, 1.4 uM for DB2115 and 660 nM for DB2313) or Vehicle; and processed for ChIP using PU.1 monoclonal antibody. Myogenin was used as a negative control, not regulated by PU.1. Data represent means±SD of technical triplicate from one representative experiment. (C) Cell viability after PU.1 rescue in MOLM13 cells. MOLM13 were transduced with a lentiviral construct expressing either PU.1-GFP (PU.1, black bar) or GFP as a control (empty, white bar), sorted on GFP and plated with DB1976 (n=7), DB2115 (n=8), DB2313 (n=6) or Vehicle. Cell count was performed after 4 days. Data represent means±SD of technical triplicate from one representative experiment; fold change compared to Vehicle is shown. (D-G) Transcriptome analysis of URE−/− cells after 24 h of treatment with DB2313 versus vehicle (n=3). Differentially expressed genes were determined with a fold change at 1.2 and a P value <0.1. (D) Enrichment in genes directly regulated by PU.1 or in genes regulated by the other ETS transcription factors Ets1, Gabpa, Spi-B, Fli-1, using Ingenuity Knowledge Base. The red dotted line represents the significance threshold (−log (P value)>1.3). […] Deregulated gens in PUER cells were analyzed with a FC at 1.5 and P-value <0.05. […] P-value was calculated using the hypergeometric test. […]

PU.1 URE−/− AML cells [3] = experiment: Colony forming capacity and serial replating of PU.1 URE−/− AML cells; assay type: cell-based, murine
Procedure: FIG. 2A-2F. PU.1 inhibition decreases cell growth and increases apoptosis of PU.1^1″ leukemic cells. (A) Chemical structures of heterocyclic diamidines DB1976, DB2115 and DB2313 used in this study. (B) Relative cell viability of URE−/− cells and BAF3 cells after treatment with increasing concentrations of vehicle or small molecules. Cell viability was assessed after 48 h. Data represent means of technical triplicate from one representative experiment; fold change compared to Vehicle is shown. (C) Cell proliferation assay of URE−/− after treatment with DB1976 (n=5), DB2115 (n=3), DB2313 (n=3), of MOLM13 cells (n=3), and THP1 cells (n=3). Cell counting was performed every 24 h during 4 days. Data represent means±SD of technical triplicate from one representative experiment. Forward strand: SEQ ID NO:3, and Reverse strand: SEQ ID NO:4; derived from the λB motif from the murine Ig lambda 2-4 enhancer, a known native PU.1-dependent gene and specific binding site for PU.1. (D) Clonogenic capacities of URE−/− cells after treatment with DB1976 (n=5), DB2115 (n=3) and DB2313 (n=4) in the first plating, and after serial replatings (n=3). Data represent means±SD of technical triplicate from one representative experiment. (E) Apoptotic cells (Annexin-V+Dapi−) fraction in URE−/− cells after 48 h of treatment with DB1976 (n=6), DB2115 (n=6) and DB2313 (n=3). […]

CC(C)NC(=N)c1ccc2nc(-c3ccc(OCc4cccc(COc5ccc(-c6nc7ccc(C(=N)NC(C)C)cc7[nH]6)cc5)c4F)cc3)[nH]c2c1 [DB2313, 3-Bis{4[4(5)-N-isopropylamidinobenzimidazolyl]phenoxymethyl]}-2-fluorobenzene tetrahydrochloride]
mean chimerism, AML cell engraftment in the bone marrow (PU.1 URE−/− AML cells [1]; 6 weeks after transplant, vehicle 55%): 33% | splenic mean weight (PU.1 URE−/− AML cells [1]; 6 weeks post transplantation, vehicle 410 mg): 243 mg | liver mean weight (PU.1 URE−/− AML cells [1]; 6 weeks post transplantation, vehicle 2,347 mg): 1,548 mg | median latency (survival of recipient mice) (PU.1 URE−/− AML cells [1]; cells treated 2 days in vitro, vehicle 44 days): 68 days | histology: blast infiltration and disruption of splenic architecture (PU.1 URE−/− AML cells [1]; in comparison to vehicle group): significantly less pronounced effects | infiltration of the liver by leukemic blasts (PU.1 URE−/− AML cells [1]; in comparison to vehicle group): substantially reduced | number of downregulated probe sets (PU.1 URE−/− AML cells [2]): 781 probe sets | number of upregulated probe sets (PU.1 URE−/− AML cells [2]): 867 probe sets | number of dysregulated transcripts (out of 34,472 total) (PU.1 URE−/− AML cells [2]; 24 h): 1648 transcripts | clonogenic capacity in serial replating, 4th and higher rounds of plating (PU.1 URE−/− AML cells [3]): complete disruption | clonogenicity in serial replating, second and third rounds of plating (PU.1 URE−/− AML cells [3]): highly significant decrease
